Measurements from patent US20150056195A1, “COMPOSITIONS AND METHODS FOR INIHIBITING TUMORIGENICITY OF SENESCENT CANCER CELLS INDUCED BY CHEMOTHERAPY” (INSERM (INSTITUT NATIONAL DE LA SANTE ET DE LA RECHERCHE …, priority 2013, published 2015).

How the values were obtained:
[1] = tested on: melanoma cell lines; assay: Western blot of MITF, ECAD, FN1, NANOG, OCT4; format: cell-based, human; conditions: three melanoma cell lines exposed 48 hrs to secretome of cells rendered senescent by the drug (temozolomide 900 nM, fotemustine 40 nM)
Experimental: (§1) Western blots were carried out as previously described^48. Briefly, cell lysates (30 μg) were separated by SDS-PAGE, transferred on to a PVDF membrane and then exposed to the appropriate primary and HRP-linked secondary antibodies. Proteins were visualized with the ECL system (Amersham). The western blots shown are representative of at least 3 independent experiments.

[2] = tested on: melanoma cell lines; assay: Cell counting and cell death; format: cell-based, human; conditions: 501mel and other melanoma cells
[3] = tested on: STAT3; assay: Western blot of STAT3, ERK and AKT signaling; format: cell-based, human; conditions: 501mel; for AKT and ERK phosphorylation / STAT3 activation (tyr705-phosphorylation): IL6 20 ng/ml or CCL2 200 ng/ml; for STAT3 activation (tyr705-phosphorylation): time course
Experimental: as §1

[4] = tested on: 501mel melanoma cells; assay: Xenograft tumor model in athymic nude mice; format: in vivo; conditions: cells exposed in vitro 48 hrs or transfected, then 4x10^6 cells/mouse subcutaneously
Experimental: Mice were randomly divided into 3 groups of 6 mice. 501mel melanoma cells were transfected with control (siC) or STAT3 (siSTAT3) siRNA and were exposed in vitro to the secretome of senescent melanoma cells (SSMC) or to recombinant CCL2 (200 ng/ml) or IL6 (20 ng/ml) for 48 hrs, washed twice with phosphate-buffered saline and then inoculated subcutaneously (4×10^6 cells/mouse) into 6-week-old female immune-deficient Athymic Nude FOXN1^nu mice (Harlan Laboratory). The growth tumor curves were determined by measuring the tumor volume using the equation V=(L×W2)/2. Mice were killed by CO2 inhalation and tumors were taken.

[5] = tested on: 501mel cells; assay: Flow cytometry of MITF content (low-MITF population); format: cell-based, human; conditions: IL6 20 ng/ml, 48 hrs; control 2
[6] = tested on: 501mel melanoma cells; assay: qRT-PCR of mesenchymal, stemness and MITF transcripts; format: cell-based, human; conditions: IL6 20 ng/ml, mRNA and protein levels
Experimental: mRNA isolation was performed with Trizol (Invitrogen), according to standard procedure. QRT-PCR was carried out with SYBR® Green I and Multiscribe Reverse Transcriptase (Promega) and monitored by an ABI Prism 7900 Sequence Detection System (Applied Biosystems, Foster City, Calif.). Detection of SB34 gene was used to normalize the results. Primer sequences for each cDNA were designed using either Primer Express Software (Applied Biosystems) or qPrimer depot (http://primerdepot.nci.nih.gov) and are available upon request.

[7] = tested on: 501mel cells; assay: CFSE labeling, number of cell divisions by FACS; format: cell-based, human; conditions: IL6 20 ng/ml, 72 hrs; control 5.65
Experimental: For the in vitro CFSE assay, cells were labeled with 2 μmol/l of CFSE according to the manufacturer's protocol (Invitrogen), then plated and treated with the secretome of control (SCMC) or senescent melanoma cells (SSMC) or recombinant IL6 (20 ng/ml). Cells were detached and analyzed by flow cytometry using MACSQuant (Miltenyi biotech). Cells were exposed to control (Cont) or senescent secretome (SSMC). Seventy-two hours later, cells were detached in phosphate-buffered saline/EDTA 2 mM and stained with DAPI to exclude dead cells. Fluorescence was measured by using the FL1/FL2 channels of a MACSQuant. Data were analyzed with MACSQuant software (Miltenyi biotech).

CCOP(=O)(OCC)C(C)NC(=O)N(CCCl)N=O (stereo not drawn) [fotemustine]
E-Cadherin and MITF protein level [1]: decrease
expression of Fibronectin1 [1]: increased expression

CN[C@@H]1C[C@H]2O[C@@](C)([C@@H]1OC)n1c3ccccc3c3c4c(c5c6ccccc6n2c5c31)C(=O)NC4 [staurosporine]
cell death [2]: positive control

CCL2: recombinant human CCL2 from R&D Systems, used at 200 ng/ml
time of maximum STAT3 phosphorylation ([3]; CCL2 200 ng/ml): 60 min
AKT and ERK phosphorylation [3]: no or very weak stimulation
STAT3 activation (tyr705-phosphorylation) [3]: dramatic increase
tumor formation of xenografted 501mel cells [4]: gave rise to tumors

IL6: recombinant human IL6 from R&D Systems, used at 20 ng/ml
low-MITF population [5]: 7%
NANOG and OCT4 expression [6]: enhanced
amount of MITF [6]: reduced
time to rapid and robust STAT3 phosphorylation ([3]; IL6 20 ng/ml): ≤ 5 min
AKT and ERK phosphorylation [3]: no or very weak stimulation
STAT3 activation (tyr705-phosphorylation) [3]: dramatic increase
percentage of cells that underwent 0/1 division [7]: 18.3%
tumor formation of xenografted 501mel cells [4]: gave rise to tumors
